Test results from patent publication US12612412B2, “Antiviral heterocyclic compounds” (Enanta Pharmaceuticals, Inc., priority 2021, dated 2026).
Like-named read-outs stand apart in the source and are kept apart here.

Tests used:
[1] = test system: genotype A, "Long" strain RSV; experiment: RSV-A assay (CPE protection in Hep-2 cells, ATPlite readout); format: cell-based, Human respiratory syncytial virus (HRSV); settings: MOI 0.1, CPE protection
How it was run: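 Hep-2 cells (8,000/well) were treated with 2-fold serial compound dilutions in duplicate and infected with RSV at MOI 0.1. After 5 days, protection from cytopathic effect was measured as cell viability by ATPlite luminescence, and EC50 values were derived.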

[2] = test system: HMPV clinical isolate TN/1501/A1; experiment: HMPV antiviral assay Method-B (clinical isolate TN/1501/A1 in LLC-MK2 cells, ATP-Lite readout); format: cell-based, Human metapneumovirus (HMPV); settings: hMPV WT1501 (clinical isolate TN/1501/A1), 6 days
How it was run: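 LLC-MK2 cells infected in suspension with TN/1501/A1 at MOI 0.014 in serum-free medium with 2 μg/mL TPCK-trypsin (final), incubated 6 days at 37° C. Compounds tested in duplicate, 10-point 3-fold dilutions from 10 μM. Cell health read by ATP-Lite luminescence, normalised to virus-only and cells-only controls; EC50 by four-parameter logistic fit.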

[3] = human respiratory syncytial virus, genotype A “Long” strain RSV, read-out: Human RSV-A (“Long”)
[4] = human metapneumovirus, LLC-MK2, 144 h
[5] = human respiratory syncytial virus, RSV-A Long strain, read-out: Human RSV-A (“Long”) EC50

SMILES | EC50 [1, 3] [nM] | EC50 [2, 4] [nM] | EC50 [1, 5] [nM] | EC50 ([1]; RSV-A Long strain, read-out: Human RSV-A (“Long”) EC50) [nM] | EC50 [2] [nM]
COc1cc(C(=O)NC[C@](O)(c2cc3c(c(-c4ccc(F)c(F)c4F)n2)OC[C@]3(C)C(N)=O)C2CC2)cc2cn(C3CC3)nc12 [Example 525] | < 200 | < 500 |  |  | 
COc1cc(C(=O)NC[C@](O)(c2cc3c(c(-c4ccc(F)cc4)n2)OC[C@]3(C)C(N)=O)C2CC2)cc2sc(C3CC3)nc12 [Example 741] | < 200 | < 500 |  |  | 
COc1cc(C(=O)NC[C@](O)(c2cc3c(c(-c4ccc(F)c(Cl)c4F)n2)OC[C@]3(C)C(N)=O)C2CC2)cc2cn(C3(F)CC3)nc12 [Example 555] | < 200 | < 500 |  |  | 
COc1cc(C(=O)NC[C@](O)(c2cc3c(c(-c4ccc(F)c(Cl)c4)n2)OCC3(CF)C(N)=O)C(F)(F)F)cc2cn(C3CC3)nc12 (stereo partly drawn) [Example 1050] |  | < 500 | < 200 |  | 
COc1cc(C(=O)NC[C@@](O)(c2cc3c(c(-c4ccc(OC(F)F)c(F)c4)n2)OC[C@]3(C)C(N)=O)C(F)(F)F)cc2cn(C3CC3)nc12 [Example 919] |  | > 500 | > 200 |  | 
C[C@]1(C(N)=O)COc2c1cc([C@@](O)(CNC(=O)c1cc(Cl)c3nn(C4CC4)cc3c1)C1(F)CC1)nc2-c1ccc(F)cc1 [Example 755] | < 200 | < 500 |  |  | 
COc1cc(C(=O)NC[C@](O)(c2cc3c(c(-c4ccc(F)cc4)n2)OC[C@]3(C)C(N)=O)C2(F)CC2)cc2cc(C3CC3)nn12 [Example 706] | < 200 | < 500 |  |  | 
COc1cc(C(=O)NC[C@](O)(c2cc3c(c(-c4cc(F)c(F)cc4F)n2)OC[C@]3(C)C(N)=O)C2CC2)cc2cc(Cl)c(C)nc12 [Example 1151] |  | < 500 | < 200 |  | 
COc1cc(C(=O)NC[C@](O)(c2cc3c(c(-c4cnc(Cl)c(Cl)c4)n2)OC[C@]3(C)C(N)=O)C(F)(F)F)cc2cn(C3CC3)nc12 [Example 587] | < 200 | > 500 |  |  | 
Cc1cnc2c(OC(F)F)cc(C(=O)NC[C@](O)(c3cc4c(c(-c5cc(F)c(Cl)cc5F)n3)OC[C@]4(C)C(N)=O)C3CC3)cc2c1 [Example 1183] |  | < 500 | < 200 |  | 
COc1cc(C(=O)NC[C@](O)(c2cc3c(c(-c4ccc(Cl)c(F)c4F)n2)OC[C@]3(C)C(N)=O)C2CC2)cc2cn(C(F)F)nc12 [Example 684] | < 200 | < 500 |  |  | 
COc1cc(C(=O)NC[C@](O)(c2cc3c(c(-c4ccc(Cl)cc4F)n2)OC[C@]3(C)C(N)=O)C2CC2)cc2cn(C3(F)CC3)nc12 [Example 840] |  | < 500 | < 200 |  | 
C[C@]1(C(N)=O)COc2c1cc([C@@](O)(CNC(=O)c1cc(O)c3nn(C4CC4)cc3c1)C(F)(F)F)nc2-c1ccc(F)cc1 [Example 590] | < 200 | > 500 |  |  | 
C[C@]1(C(N)=O)COc2c1cc([C@@](O)(CNC(=O)c1cc(OC3CC3)c3nn(C4(F)CC4)cc3c1)C1CC1)nc2-c1csc2c(F)cccc12 [Example 607] | < 200 | < 500 |  |  | 
COc1cc(C(=O)NC[C@](O)(c2cc3c(c(-c4cc(Cl)c(F)cc4F)n2)OC[C@]3(C)C(N)=O)C2CC2)cc2cc(Br)c(C)nc12 [Example 1154] |  | < 500 | < 200 |  | 
C[C@]1(C(N)=O)COc2c1cc([C@@](O)(CNC(=O)c1cc(F)c3nn(C4CC4)cc3c1)C1CC1)nc2-c1ccc2c(c1)OC(F)(F)O2 [Example 545] | < 200 | < 500 |  |  | 
COc1cc(C(=O)NC[C@](O)(c2cc3c(c(-c4ccc(F)c(Cl)c4)n2)OC[C@@]3(C(N)=O)C(F)F)C2CC2)cc2cc(Cl)c(C)nc12 [Example 1033] |  | < 500 | < 200 |  | 
COc1cc(C(=O)NC[C@](O)(c2cc3c(c(-c4ccc(F)cc4Cl)n2)OC[C@]3(C)C(N)=O)C(F)(F)F)cc2cn(C3CC3)nc12 [Example 993] |  | < 500 | < 200 |  | 
COc1cc(C(=O)NC[C@](O)(c2cc3c(c(-c4ccc5c(c4)CC(=O)N5)n2)OC[C@]3(C)C(N)=O)C(F)(F)F)cc2cn(C3CC3)nc12 [Example 971] |  | > 500 | > 200 |  | 
COc1cc(C(=O)NC[C@](O)(c2cc3c(c(-c4ccc(F)c(F)c4)n2)OC[C@]3(C)C(N)=O)C(F)(F)F)cc2cn(C3CC3)nc12 [Example 985] |  | < 500 | < 200 |  | 

SMILES | EC50 [1, 3] [nM] | EC50 [2, 4] [nM] | EC50 [1, 5] [nM] | EC50 ([1]; RSV-A Long strain, read-out: Human RSV-A (“Long”) EC50) [nM] | EC50 [2] [nM]
COc1cc(C(=O)NC[C@](O)(c2cc3c(c(-c4cc5c(cc4Cl)OC(F)(F)O5)n2)OC[C@]3(C)C(N)=O)C2CC2)cc2cn(C3CC3)nc12 [Example 1231] |  | < 500 | < 200 |  | 
COc1cc(C(=O)NC[C@](O)(c2cc3c(c(-c4ccc(C(F)(F)F)cc4)n2)OC[C@]3(C)C(N)=O)C2CC2)cc2cn(C(F)F)nc12 [Example 796] | < 200 | < 500 |  |  | 
COc1cc(C(=O)NCC(O)(c2cc3c(c(-c4ccc5ccn(C(F)F)c5c4)n2)OCC3(C)C(N)=O)C(F)(F)F)cc2cn(C3CC3)nc12 (stereo not drawn) [Example 940] |  |  |  | < 200 | > 500
COc1cc(C(=O)NC[C@](O)(c2cc3c(c(-c4ccc(F)c(C)c4)n2)OC[C@]3(C)C(N)=O)C(F)(F)F)cc2cn(C3CC3)nc12 [Example 636] | < 200 | < 500 |  |  | 
COc1cc(C(=O)NC[C@](O)(c2cc3c(c(-c4cc(F)c(F)cc4F)n2)OC[C@]3(C)C(N)=O)C2CC2)cc2cc(Br)c(C)nc12 [Example 1150] |  | < 500 | < 200 |  | 
COc1cc(C(=O)NC[C@](O)(c2cc3c(c(-c4ccc(F)c(C(F)(F)F)c4)n2)OC[C@]3(C)C(N)=O)C2CC2)cc2cn(C3(F)CC3)nc12 [Example 651] | < 200 | < 500 |  |  | 
Cc1nc2c(OC3CC3)cc(C(=O)NC[C@](O)(c3cc4c(c(-c5ccc(F)cc5)n3)OC[C@]4(C)C(N)=O)C3CC3)cc2cc1Cl [Example 637] | < 200 | < 500 |  |  | 
C[C@]1(C(N)=O)COc2c1cc([C@@](O)(CNC(=O)c1ccnc3nccn13)C(F)(F)F)nc2-c1ccc(F)cc1 [Example 489] | > 200 | > 500 |  |  | 
C[C@]1(C(N)=O)COc2c1cc([C@@](O)(CNC(=O)c1ccc3nn(C4CC4)cc3c1)C(F)(F)F)nc2-c1ccc2c(c1)OC(F)(F)O2 [Example 819] | < 200 | < 500 |  |  | 
COc1cc(C(=O)NC[C@](O)(c2cc3c(c(-c4cc(Cl)c(F)cc4F)n2)OC[C@]3(C)C(N)=O)C2(F)CC2)cc2cn(C(F)F)nc12 [Example 766] | < 200 | < 500 |  |  | 
Cc1cnc2c(OCC(F)F)cc(C(=O)NC[C@](O)(c3cc4c(c(-c5ccc(F)c(Cl)c5)n3)OC[C@]4(C)C(N)=O)C3CC3)cc2c1 [Example 499] | < 200 | < 500 |  |  | 
[2H]C([2H])([2H])[C@](O)(CNC(=O)c1cc(OC(F)F)c2ncc(C)cc2c1)c1cc2c(c(-c3ccc(F)cc3)n1)OC[C@]2(C)C(N)=O [Example 647] | < 200 | > 500 |  |  | 
C[C@]1(C(N)=O)COc2c1cc([C@@](O)(CNC(=O)c1cc(OC3CC3)c3nn(C(F)F)cc3c1)C(F)(F)F)nc2-c1ccc2c(c1)OC(F)(F)O2 [Example 569] | < 200 | < 500 |  |  | 
COc1cc(C(=O)NC[C@](O)(c2cc3c(c(-c4ccc5c(c4)OC(F)(F)O5)n2)OC[C@]3(C)C(N)=O)C2CC2)cc2cn(C3(F)CC3)nc12 [Example 835] |  | < 500 | < 200 |  | 
COc1cc(C(=O)NC[C@](O)(c2cc3c(c(-c4ccc(F)c(Cl)c4)n2)OC[C@@]3(C(N)=O)C(F)F)C2CC2)cc2cn(C3CC3)nc12 [Example 1025] |  | < 500 | < 200 |  | 
COc1cc(C(=O)NC[C@](O)(c2cc3c(c(-c4ccc(F)c(F)c4Cl)n2)OC[C@]3(C)C(N)=O)C2CC2)cc2ccc(C)nc12 [Example 1196] |  | > 500 | < 200 |  | 
COc1cc(-c2nc([C@@](O)(CNC(=O)c3cc(OC)c4nn(C5CC5)cc4c3)C(F)(F)F)cc3c2OC[C@]3(C)C(N)=O)ccc1F [Example 914] |  | > 500 | < 200 |  | 
COc1cc(C(=O)NC[C@](O)(c2cc3c(c(-c4ccc5c(c4)CCC5)n2)OC[C@]3(C)C(N)=O)C(F)(F)F)cc2cn(C3CC3)nc12 [Example 984] |  | > 500 | > 200 |  | 
COc1cc(C(=O)NC[C@](O)(c2cc3c(c(-c4ccc(F)c(F)c4F)n2)OC[C@]3(C(N)=O)C(F)F)C(F)(F)F)cc2cn(C3CC3)nc12 [Example 1038] |  | > 500 | > 200 |  | 
